Source: ChEMBL document CHEMBL5321230, “Design, synthesis, and biological evaluation of novel HIV-1 protease inhibitors containing pyrrolidine-derived P2 ligands to combat drug-resistant variant” (Eur J Med Chem, 2023)

How the values were obtained:
[1] = tested on: Human immunodeficiency virus 1; assay: (§1) Antiviral activity against wild type VSV-G pseudotyped HIV-1 NL4-3 infected in human HEK293T cells assessed as inhibition of viral replication by measuring luciferase activity incubated for 48 hrs further infected with human SupT1 cells for 48 hrs by luciferase based analysis; type: functional, organism-based; conditions: Human immunodeficiency virus 1, NL4-3, HEK-293T
[2] = tested on: Human immunodeficiency virus 1; assay: as §1, with “drug-resistant” for “wild type”, “NL4-3 harboring protease V32I/L33F/I54M/I84V mutant” for “NL4-3”; type: functional, organism-based; conditions: Human immunodeficiency virus 1, NL4-3, HEK-293T
[3] = Cytotoxicity against human HEK293T cells assessed as reduction in cell viability incubated for 24 hrs by CCK-8 assay; type: toxicity, cell-based, HEK-293T
[4] = biological target: Human immunodeficiency virus type 1 protease (Human immunodeficiency virus 1, UniProt Q72874); assay: Inhibition of HIV-1 protease expressed in Escherichia coli using Arg-Glu(EDANS)-Ser-Gln-Asn-Tyr-Pro-Ile-Val-Gln-Lys(DABCYL)-Arg peptide as substrate preincubated for 20 to 30 mins followed by substrate addition and measured for 10 mins by FRET assay

SMILES | EC50 [1] [µM] | EC50 [2] [µM] | CC50 at 24 h [3] [µM] | IC50 [4] [µM]
CC(C)CN(C[C@@H](O)[C@H](Cc1ccccc1)NC(=O)O[C@H]1CCOC1)S(=O)(=O)c1ccc(N)cc1 | 0.26 | 3.93 | > 200 | –
CC(C)CN(C[C@@H](O)[C@H](Cc1ccccc1)NC(=O)O[C@H]1CCNC1)S(=O)(=O)c1ccc(N)cc1 | – | – | – | 5.06
CC(C)CN(C[C@@H](O)[C@H](Cc1ccccc1)NC(=O)N[C@H]1CCNC1)S(=O)(=O)c1ccc(O)cc1 | – | – | – | 1.95
COc1ccc(S(=O)(=O)N(CC(C)C)C[C@@H](O)[C@H](Cc2ccccc2)NC(=O)[C@H]2CCCN2)cc1 | – | – | – | 39.8
COc1ccc(S(=O)(=O)N(CC(C)C)C[C@@H](O)[C@H](Cc2ccccc2)NC(=O)[C@@H]2CCNC2)cn1 | – | – | – | 0.83
CC(C)CN(C[C@@H](O)[C@H](Cc1ccccc1)NC(=O)[C@@H]1CCNC1)S(=O)(=O)c1ccc(O)cc1 | 0.29 | 1.9 | > 200 | 0.32
COc1ccc(S(=O)(=O)N(CC(C)C)C[C@@H](O)[C@H](Cc2ccccc2)NC(=O)[C@@H]2CCNC2)cc1 | 1.35 | 2.51 | > 200 | 0.41
COc1ccc(S(=O)(=O)N(CC(C)C)C[C@@H](O)[C@H](Cc2ccccc2)NC(=O)O[C@H]2CCNC2)cn1 | – | – | – | 4.04
COc1ccc(S(=O)(=O)N(CC(C)C)C[C@@H](O)[C@H](Cc2ccccc2)NC(=O)C[C@H]2CCNC2)cc1 | – | – | – | 2.77
COc1ccc(S(=O)(=O)N(CC(C)C)C[C@@H](O)[C@H](Cc2ccccc2)NC(=O)O[C@H]2CCNC2)cc1 | – | – | – | 1.1
CC(C)CN(C[C@@H](O)[C@H](Cc1ccccc1)NC(=O)O[C@H]1CCNC1)S(=O)(=O)c1ccc(O)cc1 | 0.41 | 8.14 | > 200 | 0.72
CC(C)CN(C[C@@H](O)[C@H](Cc1ccccc1)NC(=O)C[C@@H]1CCNC1)S(=O)(=O)c1ccc(O)cc1 | – | – | – | 5.01
CC(C)CN(C[C@@H](O)[C@H](Cc1ccccc1)NC(=O)O[C@H]1CCNC1)S(=O)(=O)c1ccc(NO)cc1 | – | – | – | 5.1
CC(C)CN(C[C@@H](O)[C@H](Cc1ccccc1)NC(=O)[C@H]1CCNC1)S(=O)(=O)c1ccc(N)cc1 | – | – | – | 12.5
CC(C)CN(C[C@@H](O)[C@H](Cc1ccccc1)NC(=O)[C@H]1CCCN1)S(=O)(=O)c1ccc(O)cc1 | – | – | – | 96.9
COc1ccc(S(=O)(=O)N(CC(C)C)C[C@@H](O)[C@H](Cc2ccccc2)NC(=O)C[C@@H]2CCNC2)cc1 | – | – | – | 20.5
CC(C)CN(C[C@@H](O)[C@H](Cc1ccccc1)NC(=O)[C@H]1CCNC1)S(=O)(=O)c1ccc(NO)cc1 | – | – | – | 10.9

SMILES | EC50 [1] [µM] | EC50 [2] [µM] | CC50 at 24 h [3] [µM] | IC50 [4] [µM]
COc1ccc(S(=O)(=O)N(CC(C)C)C[C@@H](O)[C@H](Cc2ccccc2)NC(=O)[C@H]2CCNC2)cc1 | – | – | – | 0.6
COc1ccc(S(=O)(=O)N(CC(C)C)C[C@@H](O)[C@H](Cc2ccccc2)NC(=O)O[C@@H]2CCNC2)cc1 | – | – | – | 2.58
CC(C)CN(C[C@@H](O)[C@H](Cc1ccccc1)NC(=O)C[C@H]1CCNC1)S(=O)(=O)c1ccc(O)cc1 | – | – | – | 1.43
COc1ccc(S(=O)(=O)N(CC(C)C)C[C@@H](O)[C@H](Cc2ccccc2)NC(=O)[C@H]2CCNC2)cn1 | – | – | – | 4.74
COc1ccc(S(=O)(=O)N(CC(C)C)C[C@@H](O)[C@H](Cc2ccccc2)NC(=O)[C@@H]2CCCN2)cc1 | – | – | – | 2.19
CC(C)CN(C[C@@H](O)[C@H](Cc1ccccc1)NC(=O)[C@@H]1CCNC1)S(=O)(=O)c1ccc(N)cc1 | – | – | – | 6.16
CC(C)CN(C[C@@H](O)[C@H](Cc1ccccc1)NC(=O)N[C@@H]1CCNC1)S(=O)(=O)c1ccc(O)cc1 | – | – | – | 5.97
COc1ccc(S(=O)(=O)N(CC(C)C)C[C@@H](O)[C@H](Cc2ccccc2)NC(=O)O[C@@H]2CCNC2)cn1 | – | – | – | 23
CC(C)CN(C[C@@H](O)[C@H](Cc1ccccc1)NC(=O)[C@@H]1CCCN1)S(=O)(=O)c1ccc(O)cc1 | – | – | – | 0.97
CC(C)CN(C[C@@H](O)[C@H](Cc1ccccc1)NC(=O)O[C@@H]1CCNC1)S(=O)(=O)c1ccc(N)cc1 | – | – | – | 25.4
COc1ccc(S(=O)(=O)N(CC(C)C)C[C@@H](O)[C@H](Cc2ccccc2)NC(=O)N[C@H]2CCNC2)cc1 | – | – | – | 4.01
CC(C)CN(C[C@@H](O)[C@H](Cc1ccccc1)NC(=O)O[C@@H]1CCNC1)S(=O)(=O)c1ccc(O)cc1 | 0.75 | 9.26 | > 200 | 0.82
CC(C)CN(C[C@@H](O)[C@H](Cc1ccccc1)NC(=O)O[C@@H]1CCNC1)S(=O)(=O)c1ccc(NO)cc1 | – | – | – | 27.4
COc1ccc(S(=O)(=O)N(CC(C)C)C[C@@H](O)[C@H](Cc2ccccc2)NC(=O)N[C@@H]2CCNC2)cc1 | – | – | – | 20.7
CC(C)CN(C[C@@H](O)[C@H](Cc1ccccc1)NC(=O)[C@@H]1CCNC1)S(=O)(=O)c1ccc(NO)cc1 | – | – | – | 1.21
CC(C)CN(C[C@@H](O)[C@H](Cc1ccccc1)NC(=O)[C@H]1CCNC1)S(=O)(=O)c1ccc(O)cc1 | 1.57 | 13.3 | > 200 | 0.51
